How the values were obtained:
[1] = system: lice eggs; experiment: Time-course in vitro lice egg hatching assay; format: in vivo, clothing lice (Pediculus humanus humanus)
[2] = system: Plutella xylostella eggs (Waite strain); experiment: Effect of added metal ions (FeSO4) on inhibition of Plutella xylostella egg hatching; format: in vivo; conditions: Table 17
Experimental: Within 24 hours of collection the following experimental design was chosen. Batches of eggs were exposed to either 10 mM 6,6′-dimethyl-2,2′-dipyridyl or solvent only (methanol) for 2 seconds. All batches of eggs were allowed to air dry for 20 minutes at room temperature. The eggs were then given a 2 second exposure to FeSO4 at either 10, 5 or 1 mM, air dried and put in the incubator at 24° C. and allowed to hatch over the next 6 days. In addition, a positive control of 10 mM 6,6′-dimethyl-2,2′-dipyridyl was set up in which eggs were exposed to this compound for 2 seconds, air dried and placed in the incubator.
Within 24 hours of collection the following experimental design was chosen. Batches of eggs were exposed to 10 mM 5,5′dimethyl-2,2′-dipyridyl or solvent only (methanol) for 2 seconds. All batches of eggs were allowed to air dry for 20 minutes at room temperature. The eggs were then given a 2 second exposure to FeSO4 at 10, 5 or 1 mM, air dried and put in an incubator at 24° C. and allowed to hatch over the next 6 days. In addition, a positive control of 10 mM, 5,5′-dimethyl-2,2′-dipyridyl was set up in which eggs were exposed to this compound for 2 seconds, air dried and placed in the incubator.

[3] = system: B. ovis eggs; experiment: Egg hatching in Bovicola ovis; format: in vivo; conditions: 10 mM, 10 eggs per replicate
Experimental: B. ovis eggs were collected from the wool of sheep that were infested with this parasite. The eggs were collected using forceps and with the aid of a dissecting microscope and placed in 24 well tissue culture plates in duplicate lots of 10 eggs per replicate. The eggs were then exposed to either methanol alone (solvent control) or the test compounds for either 10 minutes or 1 minute or left as untreated controls before being removed from the wells and placed into individual glass vials containing a diet at the base of the tube. The tubes were placed in plastic containers containing a salt solution (to keep humidity constant at 68%) and the containers maintained at a temperature 32° C. The eggs were monitored for hatching over the following 12 days and % hatch inhibition determined in comparison to the controls.

[4] = system: Plutella xylostella eggs (Waite strain); experiment: Egg hatching of Plutella xylostella
Experimental: The egg masses were then placed in a humid box at 25 degrees until egg hatch. Control eggs were exposed to absolute methanol as described above. At day 6 post laying the eggs were assessed from the different treatments and the percentage of egg hatch determined relative to the control as shown in Table 9.
Batches of Plutella eggs that were laid on either fine cloth or parafilm were dipped in a specific inhibitor solution for between 2-10 seconds, the excess solution was drained by blotting with dry tissue paper. The egg masses were then placed in a humid box at 25 degrees until egg hatch. Control eggs were exposed to absolute methanol as described above or not treated. At day 6 post laying the eggs were assessed from the different treatments and the percentage of egg hatch determined relative to the controls as shown in Tables 10 and 11.
Batches of Plutella eggs that were laid on fine cloth were dipped in a specific inhibitor solution for approximately 2 seconds, the excess solution was drained by blotting with dry tissue paper. The egg masses were then placed in a humid box at 25 degrees until egg hatch. Control eggs were exposed to absolute methanol as described above or not treated. At day 6 post laying the eggs were assessed from the different treatments and the percentage of egg hatch determined relative to the control as shown in Table 12.
The egg masses were then placed in a humid box at 25 degrees until egg hatch. Control eggs were exposed to absolute ethanol as described above. On day 6 post laying the eggs were assessed from the different treatments and the percentage of egg hatch determined relative to the control.

[5] = system: Helicoverpa armigera eggs (Tatura×Toowoomba strains); experiment: Egg hatching of Helicoverpa armigera; conditions: for % Inhibition: relative to control
Experimental: Several hundred Helicoverpa armigera eggs (Tatura×Toowoomba strains) were collected, that had been laid on fine mesh cloth over a 24 hour period.
Batches of Helicoverpa eggs were exposed to a specific inhibitor solution for between 2-10 seconds the excess solution drained by blotting with dry tissue paper. The egg masses were then placed in a humid box at 25 degrees until egg hatch. Control eggs were exposed to absolute methanol as described above.

[6] = 10 mM inhibitor alone, (+ve) control
[7] = 10 mM inhibitor followed by 2 second exposure to 1 mM FeSO4
[8] = 10 mM inhibitor followed by 2 second exposure to 5 mM FeSO4
[9] = 10 mM inhibitor followed by 2 second exposure to 10 mM FeSO4
[10] = 10 mM inhibitor followed by 2 second exposure to MEOH
[11] = Table 9, 0.001 mM, dipped 2-10 seconds, day 6 post laying
[12] = Table 9, 0.01 mM, dipped 2-10 seconds, day 6 post laying
[13] = Table 9, 0.1 mM, dipped 2-10 seconds, day 6 post laying
[14] = Table 9, 1 mM, dipped 2-10 seconds, day 6 post laying
[15] = Table 9, 10 mM, dipped 2-10 seconds, day 6 post laying
[16] = Table 10, 0.01 mM, eggs laid on cloth
[17] = Table 10, 0.1 mM, eggs laid on cloth
[18] = Table 10, 1 mM, eggs laid on cloth
[19] = Table 10, 10 mM, eggs laid on cloth
[20] = Table 11, 0.01 mM, eggs laid on parafilm
[21] = Table 11, 0.1 mM, eggs laid on parafilm
[22] = Table 11, 1 mM, eggs laid on parafilm
[23] = Table 14, 1 mM, exposed 2-10 seconds, day 6 post laying
[24] = Table 14, 10 mM, exposed 2-10 seconds, day 6 post laying

In the case of `Cc1cccc(-c2cccc(C)n2)n1` [6,6′-dimethyl-2,2′-dipyridyl], the “% Inhibition of lice egg hatching (maximum over the time-course)” value ([1]; 10 mM) is reported as 100%, the “H (number of eggs successfully hatched)” value ([1]; Table 6, […], per replicate) is reported as 0 and the “Ph (number of eggs partly hatched)” value ([1]; Table 6, […], per replicate) is reported as 0. The lice egg hatching ([1]; in vivo) was “completely inhibited”, the “% Inhibition” value [2, 6] was 100% and the Number hatched [2, 6] was 0. It also gave a Number unhatched [2, 6] of 44, a Number hatched [2, 7] of 33 and a Number unhatched [2, 7] of 1. For the same molecule, the “% Inhibition” value ([2]; 10 mM inhibitor followed by 2 second exposure to 1 mM FeSO4, relative to the FeSO4 controls) was 3%, the Number hatched [2, 8] was 25 and the Number unhatched [2, 8] was 0. The “% Inhibition” value ([2]; 10 mM inhibitor followed by 2 second exposure to 5 mM FeSO4, relative to the FeSO4 controls) was 0%, the Number hatched [2, 9] was 12 and the Number unhatched [2, 9] was 19. For the same molecule, the “% Inhibition” value ([2]; 10 mM inhibitor followed by 2 second exposure to 10 mM FeSO4, relative to the FeSO4 controls) was 38%, the Number hatched [2, 10] was 3 and the Number unhatched [2, 10] was 28. It also gave a Number unhatched ([3]; 1 minute exposure) of 10, a Number unhatched ([3]; 10 minute exposure) of 10 and a Number hatched [4, 11] of 11. The Number unhatched [4, 11] was 6, the “% Inhibition” value ([4]; Table 9, 0.001 mM, relative to control (100% MeOH)) was 0% and the Number hatched [4, 12] was 13. For the same molecule, the Number unhatched [4, 12] was 7, the “% Inhibition” value ([4]; Table 9, 0.01 mM, relative to control (100% MeOH)) was 0% and the Number hatched [4, 13] was 23. The Number unhatched [4, 13] was 29, the “% Inhibition” value ([4]; Table 9, 0.1 mM, relative to control (100% MeOH)) was 0% and the Number hatched [4, 14] was 0. The Number unhatched [4, 14] was 26, the “% Inhibition” value ([4]; Table 9, 1 mM, relative to control (100% MeOH)) was 100% and the “% Inhibition” value ([4]; Table 9, 1 mM, relative to control (100% MeOH), listed as 6,6′dimethyl-2,2′dipyridyl) was “strong ovicidal effects”. The Number hatched [4, 15] was 0, the Number unhatched [4, 15] was 79 and the “% Inhibition” value ([4]; Table 9, 10 mM, relative to control (100% MeOH)) was 100%. For the same molecule, the “% Inhibition” value ([4]; Table 9, 10 mM, relative to control (100% MeOH), listed as 6,6′dimethyl-2,2′dipyridyl) was “strong ovicidal effects”, the Number hatched [4, 16] was 23 and the Number unhatched [4, 16] was 4. For the same molecule, the “% Inhibition” value ([4]; Table 10, 0.01 mM, eggs laid on cloth, relative to controls) was 12%, the Number hatched [4, 17] was 49 and the Number unhatched [4, 17] was 49. For the same molecule, the “% Inhibition” value ([4]; Table 10, 0.1 mM, eggs laid on cloth, relative to controls) was 0%, the Number hatched [4, 18] was 0 and the Number unhatched [4, 18] was 23. The “% Inhibition” value ([4]; Table 10, 1 mM, eggs laid on cloth, relative to controls) was 100%, the Number hatched [4, 19] was 0 and the Number unhatched [4, 19] was 53. For the same molecule, the “% Inhibition” value ([4]; Table 10, 10 mM, eggs laid on cloth, relative to controls) was 100%, the Number hatched [4, 20] was 92 and the Number unhatched [4, 20] was 4. For the same molecule, the “% Inhibition” value ([4]; Table 11, 0.01 mM, eggs laid on parafilm, relative to controls) was 0%, the Number hatched [4, 21] was 65 and the Number unhatched [4, 21] was 70. For the same molecule, the “% Inhibition” value ([4]; Table 11, 0.1 mM, eggs laid on parafilm, relative to controls) was 7%, the Number hatched [4, 22] was 0 and the Number unhatched [4, 22] was 63. The “% Inhibition” value ([4]; Table 11, 1 mM, eggs laid on parafilm, relative to controls) was 100%, the Number hatched ([4]; Table 11, 10 mM, eggs laid on parafilm) was 0 and the “% Inhibition” value ([4]; Table 11, 10 mM, eggs laid on parafilm, relative to controls) was 100%. For the same molecule, the “% Inhibition” value ([5]; Table 14, 0.001 mM) was 0%, the “% Inhibition” value ([5]; Table 14, 0.01 mM) was 0% and the “% Inhibition” value ([5]; Table 14, 0.1 mM) was 0%. For the same molecule, the Number hatched [5, 23] was 4, the Number unhatched [5, 23] was 140 and the “% Inhibition” value ([5]; Table 14, 1 mM) was 97%. For the same molecule, the “% Inhibition” value ([5]; Table 14, 1 mM, listed as 6,6′dimethyl-2,2′dipyridyl) was “significantly inhibit egg hatching”, the Number hatched [5, 24] was 7 and the Number unhatched [5, 24] was 98. For the same molecule, the “% Inhibition” value ([5]; Table 14, 10 mM) was 94%, the “% Inhibition” value ([5]; Table 14, 10 mM, listed as 6,6′dimethyl-2,2′dipyridyl) was “significantly inhibit egg hatching” and the Number hatched ([5]; Table 15, 0.1 mM) was 70. For the same molecule, the Number unhatched ([5]; Table 15, 0.1 mM) was 0, the Number hatched ([5]; Table 15, 1 mM) was 2 and the Number unhatched ([5]; Table 15, 1 mM) was 61. It also gave a Number hatched ([5]; Table 15, 10 mM) of 3 and a Number unhatched ([5]; Table 15, 10 mM) of 48.

Reference: US20090143419A1, “METHODS AND COMPOSITIONS FOR CONTROLLING ECTOPARASITES” (HATCHTECH PTY LTD, priority 2005, published 2009)
